Reference: the NIST ThermoML archive (doi:10.1016/j.jct.2016.06.001)
Numbers after ± are expanded uncertainties.

Conditions: Liquid, Frequency=8 MHz, Pulse-echo method

OCCO [1,2-ethanediol]
Conditions	speed of sound [m/s]
273.15 K, 99 kPa	1713.8 ± 0.82
273.15 K, 5204 kPa	1727.5 ± 0.82
273.15 K, 10344 kPa	1740.9 ± 0.83
273.15 K, 15152 kPa	1753.2 ± 0.83
273.15 K, 20194 kPa	1765.9 ± 0.84
273.15 K, 25132 kPa	1778.1 ± 0.84
273.15 K, 30171 kPa	1789.9 ± 0.85
293.15 K, 99 kPa	1665.8 ± 0.8
293.15 K, 5051 kPa	1679.8 ± 0.81
293.15 K, 10070 kPa	1693.5 ± 0.81
293.15 K, 15176 kPa	1707.2 ± 0.82
293.15 K, 20158 kPa	1720.2 ± 0.82
293.15 K, 25108 kPa	1732.9 ± 0.83
293.15 K, 30024 kPa	1745.3 ± 0.83
313.15 K, 100 kPa	1618.5 ± 0.78
313.15 K, 5031 kPa	1633.1 ± 0.79
313.15 K, 10028 kPa	1647.3 ± 0.79
313.15 K, 15117 kPa	1661.7 ± 0.8
313.15 K, 20088 kPa	1675.3 ± 0.81
313.15 K, 25102 kPa	1688.7 ± 0.81
313.15 K, 29983 kPa	1701.6 ± 0.81
333.15 K, 99 kPa	1570.7 ± 0.76
333.15 K, 5054 kPa	1586.1 ± 0.77
333.15 K, 10048 kPa	1601.1 ± 0.78
333.15 K, 15067 kPa	1615.8 ± 0.78
333.15 K, 20106 kPa	1630.3 ± 0.79
333.15 K, 25103 kPa	1644.3 ± 0.79
333.15 K, 29958 kPa	1657.7 ± 0.8
353.15 K, 100 kPa	1521.8 ± 0.74
353.15 K, 5079 kPa	1538.1 ± 0.75
353.15 K, 10048 kPa	1553.8 ± 0.76
353.15 K, 15054 kPa	1569.3 ± 0.76
353.15 K, 20071 kPa	1584.4 ± 0.77
353.15 K, 25078 kPa	1599.1 ± 0.78
353.15 K, 29995 kPa	1613.3 ± 0.78

CCC(C)O (stereo not given) [butan-2-ol]
Conditions	speed of sound [m/s]
253.15 K, 100 kPa	1374.6 ± 0.7
253.15 K, 5155 kPa	1400.3 ± 0.71
253.15 K, 10194 kPa	1424.8 ± 0.72
253.15 K, 15178 kPa	1448.1 ± 0.72
253.15 K, 20139 kPa	1470.5 ± 0.73
253.15 K, 25051 kPa	1491.9 ± 0.74
253.15 K, 30449 kPa	1514.4 ± 0.75
273.15 K, 100 kPa	1301.2 ± 0.67
273.15 K, 5150 kPa	1329.2 ± 0.68
273.15 K, 10187 kPa	1355.8 ± 0.69
273.15 K, 15226 kPa	1381.1 ± 0.7
273.15 K, 20096 kPa	1404.6 ± 0.71
273.15 K, 25052 kPa	1427.7 ± 0.72
273.15 K, 30040 kPa	1450 ± 0.72
293.15 K, 102 kPa	1229.1 ± 0.64
293.15 K, 5048 kPa	1258.9 ± 0.65
293.15 K, 10078 kPa	1287.7 ± 0.66
293.15 K, 15045 kPa	1314.6 ± 0.67
293.15 K, 20093 kPa	1340.9 ± 0.68
293.15 K, 25164 kPa	1366 ± 0.69
293.15 K, 29995 kPa	1389 ± 0.7
313.15 K, 100 kPa	1156.3 ± 0.61
313.15 K, 5081 kPa	1189.2 ± 0.63
313.15 K, 10051 kPa	1220 ± 0.64
313.15 K, 15034 kPa	1249.2 ± 0.65
313.15 K, 20050 kPa	1277.2 ± 0.66
313.15 K, 25148 kPa	1304.3 ± 0.67
313.15 K, 30041 kPa	1329.3 ± 0.68
333.15 K, 101 kPa	1081.4 ± 0.59
333.15 K, 5111 kPa	1117.8 ± 0.6
333.15 K, 10069 kPa	1151.4 ± 0.61
333.15 K, 15039 kPa	1183 ± 0.62
333.15 K, 20109 kPa	1213.5 ± 0.64
333.15 K, 25122 kPa	1242.1 ± 0.65
333.15 K, 30086 kPa	1269.2 ± 0.66
353.15 K, 119 kPa	1003.7 ± 0.56
353.15 K, 5050 kPa	1043.6 ± 0.57
353.15 K, 10149 kPa	1081.5 ± 0.59
353.15 K, 15213 kPa	1116.5 ± 0.6
353.15 K, 20040 kPa	1147.9 ± 0.61
353.15 K, 25218 kPa	1179.7 ± 0.62
353.15 K, 30032 kPa	1207.7 ± 0.63

OCCCO [propan-1,3-diol]
Conditions	speed of sound [m/s]
293.15 K, 100 kPa	1635.2 ± 1.4
293.15 K, 5030 kPa	1650 ± 1.4
293.15 K, 10062 kPa	1664.6 ± 1.4
293.15 K, 15066 kPa	1678.9 ± 1.4
293.15 K, 20096 kPa	1692.9 ± 1.4
293.15 K, 24997 kPa	1706.3 ± 1.4
293.15 K, 30029 kPa	1719.9 ± 1.4
313.15 K, 99 kPa	1589.5 ± 1.4
313.15 K, 5048 kPa	1605.1 ± 1.4
313.15 K, 10031 kPa	1620.3 ± 1.4
313.15 K, 15138 kPa	1635.4 ± 1.4
313.15 K, 20064 kPa	1649.8 ± 1.4
313.15 K, 25191 kPa	1664.4 ± 1.4
313.15 K, 30167 kPa	1678.3 ± 1.4
333.15 K, 100 kPa	1544.1 ± 1.3
333.15 K, 5058 kPa	1560.3 ± 1.3
333.15 K, 10054 kPa	1576.2 ± 1.3
333.15 K, 15024 kPa	1591.7 ± 1.4
333.15 K, 20153 kPa	1607.2 ± 1.4
333.15 K, 25135 kPa	1622 ± 1.4
333.15 K, 30136 kPa	1636.6 ± 1.4
353.15 K, 101 kPa	1497.6 ± 1.3
353.15 K, 5038 kPa	1514.6 ± 1.3
353.15 K, 10023 kPa	1531.3 ± 1.3
353.15 K, 15089 kPa	1547.8 ± 1.3
353.15 K, 20158 kPa	1563.9 ± 1.3
353.15 K, 25109 kPa	1579.3 ± 1.3
353.15 K, 30076 kPa	1594.4 ± 1.4
